Laboratory results taken from patent US11939290B2, “Heterocycle-containing amino acid compound and salt thereof, complex, composition, fertilizer and plant growth regulator” (TOKUSHIMA UNIVERSITY, priority 2018, dated 2024).

Assay: Stability test in acidic aqueous solution (1H NMR residual rate)
Type: physicochemical
Conditions: for residual rate, lapsed day 0 / residual rate, lapsed day 10 / residual rate, lapsed day 20 / residual rate, lapsed day 27: acidic aqueous solution in heavy water; for residual rate, lapsed day 0: pH 2.0, 0 day (immediately after preparation); for residual rate, lapsed day 10 / residual rate, lapsed day 20 / residual rate, lapsed day 27: pH 2.0, stored at 25° C. sealed, protected from light; for residual rate, lapsed day 10: 10 days; for residual rate, lapsed day 20: 20 days; for residual rate, lapsed day 27 / stability in an acidic aqueous solution compared with derivatives (X), (X′) and (Y): 27 days; for stability in an acidic aqueous solution compared with derivatives (X), (X′) and (Y): acidic aqueous solution pH 2, 25° C.
Description: In this stability test, whether acidic aqueous solutions prepared using the derivatives (X), (X′) and (Y), and 2′-deoxymugineic acid (DMA) and a compound having the following structure (hereinafter, referred to as “PDMA”) were stable along with the lapse of time, i.e., whether the derivatives were difficult to decompose was evaluated.
The following test solutions (a), (b) and (c) were prepared using the derivatives (X), (X′) and (Y). Also, the following test solutions (d) and (e) were prepared using DMA and PDMA. The test solution (a) was prepared by dissolving 3 μmol of the substance in 0.5 mL of heavy water. Other test solutions were prepared by dissolving 0.03 mmol of the substance in 0.5 mL of heavy water. The pH of the test solution was 2. • Test solution (a) for Test Example 1: acidic aqueous solution of the derivative (X) • Test solution (b) for Test Example 2: acidic aqueous solution of the derivative (X′) • Test solution (c) for Test Example 3: acidic aqueous solution of the derivative (Y) • Test solution (d) for Referential Example 1: acidic aqueous solution of DMA • Test solution (e) for Referential Example 2: acidic aqueous solution of PDMA
An NMR measuring tube (manufactured by Kanto Chemical Co., Inc., φ5 mm×7 inch) was filled with each of the test solutions (a) to (e), and ^1H NMR measurement was performed. ^1H NMR was measured immediately after (0 day), 10 days after, 20 days after, and 27 days after the preparation of the test solution. The test solutions were stored at room temperature (25° C.) in a sealed state in which they were placed in the NMR measuring tubes, while being protected from light.
Attention was paid to 4.4 ppm (1H, q) for DMA, 4.4 ppm (1H, q) for PDMA, 4.3 ppm (1H, dd) for the derivative (X), 4.3 ppm (1H, dd) for the derivative (X′), and 4.3 ppm (1H, dd) for the derivative (Y) in the resulting ^1H NMR spectrum. […] On the other hand, in the case of the test solutions (d) and (e), peaks derived from decomposition products of DMA and PDMA were detected with the lapse of the storage time. The chemical shifts of the peaks were 4.5 ppm (t, 1H) for DMA and 4.5 ppm (1H, t) for PDMA. Thus, from the integrated values, the residual rate of DMA or PDMA after 10, 20, and 27 days was calculated based on the following calculation formula (see Table 1 and FIG. 1):
(Integrated value of measured compound)/{(integrated value of measured compound)+(integrated value of decomposition product)}×100

residual rate, lapsed day 0 [%]	residual rate, lapsed day 10 [%]	residual rate, lapsed day 20 [%]	residual rate, lapsed day 27 [%]	stability in an acidic aqueous solution compared with derivatives (X), (X′) and (Y)	Structure (SMILES)
100	77.3	68.2	59.3	inferior	O=C(O)C(O)CCNC(CCN1CCC1C(=O)O)C(=O)O (stereo not shown) [DMA, 2′-deoxymugineic acid]
100	68.4	61.7	55.2	inferior	O=C(O)C(O)CCNC(CCN1CCCC1C(=O)O)C(=O)O (stereo not shown) [PDMA]
